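Five concentrations, 48 hours, 96-well plates. GI50 = concentration required for 50% inhibition of growth. TGI: concentration producing complete growth inhibition.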
What was measured:
Test in all cases: NCI-60 cell line screen, 48 h
UO-31 renal = tested on: UO-31 renal
OVCAR-8 ovarian = tested on: OVCAR-8 ovarian
RPMI-8226 leukemia = tested on: RPMI-8226 leukemia
SK-MEL-2 melanoma = tested on: SK-MEL-2 melanoma
IGROV1 ovarian = tested on: IGROV1 ovarian
U251 CNS = tested on: U251 CNS
BT-549 breast = tested on: BT-549 breast
PC-3 prostate = tested on: PC-3 prostate
SF-295 CNS = tested on: SF-295 CNS
HL-60(TB) leukemia = tested on: HL-60(TB) leukemia
NCI-H460 lung = tested on: NCI-H460 lung
SNB-75 CNS = tested on: SNB-75 CNS
HT29 colon = tested on: HT29 colon
HS 578T breast = tested on: HS 578T breast
SK-OV-3 ovarian = tested on: SK-OV-3 ovarian
SF-539 CNS = tested on: SF-539 CNS
MALME-3M melanoma = tested on: MALME-3M melanoma
OVCAR-5 ovarian = tested on: OVCAR-5 ovarian
OVCAR-3 ovarian = tested on: OVCAR-3 ovarian
EKVX NSCLC = tested on: EKVX NSCLC
SN12C renal = tested on: SN12C renal
OVCAR-4 ovarian = tested on: OVCAR-4 ovarian
786-0 renal = tested on: 786-0 renal
HCT-15 colon = tested on: HCT-15 colon
T-47D breast = tested on: T-47D breast
CCRF-CEM leukemia = tested on: CCRF-CEM leukemia
TK-10 renal = tested on: TK-10 renal
SNB-19 CNS = tested on: SNB-19 CNS
MDA-MB-231 breast = tested on: MDA-MB-231 breast
RXF 393 renal = tested on: RXF 393 renal
SK-MEL-28 melanoma = tested on: SK-MEL-28 melanoma
ACHN renal = tested on: ACHN renal
MCF7 breast = tested on: MCF7 breast
NCI-H226 lung = tested on: NCI-H226 lung
DU-145 prostate = tested on: DU-145 prostate
MOLT-4 leukemia = tested on: MOLT-4 leukemia
A549 NSCLC = tested on: A549 NSCLC
A498 renal = tested on: A498 renal
NCI-H23 lung = tested on: NCI-H23 lung
HCT-116 colon = tested on: HCT-116 colon
SK-MEL-5 melanoma = tested on: SK-MEL-5 melanoma
LOX IMVI melanoma = tested on: LOX IMVI melanoma
SF-268 CNS = tested on: SF-268 CNS
SW-620 colon = tested on: SW-620 colon
SR leukemia = tested on: SR leukemia
KM12 colon = tested on: KM12 colon
HCC-2998 colon = tested on: HCC-2998 colon
MDA-MB-435 = tested on: MDA-MB-435
K-562 leukemia = tested on: K-562 leukemia
CAKI-1 renal = tested on: CAKI-1 renal
NCI-H522 lung = tested on: NCI-H522 lung
HOP-92 NSCLC = tested on: HOP-92 NSCLC
HOP-62 NSCLC = tested on: HOP-62 NSCLC
COLO 205 colon = tested on: COLO 205 colon
UACC-257 melanoma = tested on: UACC-257 melanoma
UACC-62 melanoma = tested on: UACC-62 melanoma

SMILES: COc1cc2cc(Oc3ccc(NC(=O)c4ccc(Cl)c(Cl)c4)cc3)c(C)nc2cc1OC
- GI50 (UO-31 renal): 8.44 µM
- TGI (UO-31 renal): > 100 µM
- GI50 (OVCAR-8 ovarian): > 100 µM
- TGI (OVCAR-8 ovarian): > 100 µM
- GI50 (RPMI-8226 leukemia): 3.7 µM
- TGI (RPMI-8226 leukemia): > 100 µM
- GI50 (SK-MEL-2 melanoma): > 100 µM
- TGI (SK-MEL-2 melanoma): > 100 µM
- GI50 (IGROV1 ovarian): > 100 µM
- TGI (IGROV1 ovarian): > 100 µM
- GI50 (U251 CNS): > 100 µM
- TGI (U251 CNS): > 100 µM
- GI50 (BT-549 breast): 3.91 µM
- TGI (BT-549 breast): > 100 µM
- GI50 (PC-3 prostate): 4.77 µM
- TGI (PC-3 prostate): > 100 µM
- GI50 (SF-295 CNS): 1.59 µM
- TGI (SF-295 CNS): > 100 µM
- GI50 (HL-60(TB) leukemia): > 100 µM
- TGI (HL-60(TB) leukemia): > 100 µM
- GI50 (NCI-H460 lung): 25.4 µM
- TGI (NCI-H460 lung): > 100 µM
- GI50 (SNB-75 CNS): > 100 µM
- TGI (SNB-75 CNS): > 100 µM
- GI50 (HT29 colon): 7.89 µM
- TGI (HT29 colon): > 100 µM
- GI50 (HS 578T breast): 7.24 µM
- TGI (HS 578T breast): > 100 µM
- GI50 (SK-OV-3 ovarian): > 100 µM
- TGI (SK-OV-3 ovarian): > 100 µM
- GI50 (SF-539 CNS): > 100 µM
- TGI (SF-539 CNS): > 100 µM
- GI50 (MALME-3M melanoma): > 100 µM
- TGI (MALME-3M melanoma): > 100 µM
- GI50 (OVCAR-5 ovarian): > 100 µM
- TGI (OVCAR-5 ovarian): > 100 µM
- GI50 (OVCAR-3 ovarian): 9.34 µM
- TGI (OVCAR-3 ovarian): > 100 µM
- GI50 (EKVX NSCLC): 6.8 µM
- TGI (EKVX NSCLC): > 100 µM
- GI50 (SN12C renal): > 100 µM
- TGI (SN12C renal): > 100 µM
- GI50 (OVCAR-4 ovarian): 5.26 µM
- TGI (OVCAR-4 ovarian): > 100 µM
- GI50 (786-0 renal): > 100 µM
- TGI (786-0 renal): > 100 µM
- GI50 (HCT-15 colon): 7.94 µM
- TGI (HCT-15 colon): > 100 µM
- GI50 (T-47D breast): 3.28 µM
- TGI (T-47D breast): > 100 µM
- GI50 (CCRF-CEM leukemia): 4.44 µM
- TGI (CCRF-CEM leukemia): > 100 µM
- GI50 (TK-10 renal): 9.81 µM
- TGI (TK-10 renal): > 100 µM
- GI50 (SNB-19 CNS): > 100 µM
- TGI (SNB-19 CNS): > 100 µM
- GI50 (MDA-MB-231 breast): 9.89 µM
- TGI (MDA-MB-231 breast): > 100 µM
- GI50 (RXF 393 renal): 9.66 µM
- TGI (RXF 393 renal): > 100 µM
- GI50 (SK-MEL-28 melanoma): > 100 µM
- TGI (SK-MEL-28 melanoma): > 100 µM
- GI50 (ACHN renal): 8.63 µM
- TGI (ACHN renal): > 100 µM
- GI50 (MCF7 breast): 5.32 µM
- TGI (MCF7 breast): > 100 µM
- GI50 (NCI-H226 lung): > 100 µM
- TGI (NCI-H226 lung): > 100 µM
- GI50 (DU-145 prostate): > 100 µM
- TGI (DU-145 prostate): > 100 µM
- GI50 (MOLT-4 leukemia): 6.12 µM
- TGI (MOLT-4 leukemia): > 100 µM
- GI50 (A549 NSCLC): > 100 µM
- TGI (A549 NSCLC): > 100 µM
- GI50 (A498 renal): 20.6 µM
- TGI (A498 renal): > 100 µM
- GI50 (NCI-H23 lung): 6.68 µM
- TGI (NCI-H23 lung): > 100 µM
- GI50 (HCT-116 colon): 4.26 µM
- TGI (HCT-116 colon): > 100 µM
- GI50 (SK-MEL-5 melanoma): 4.99 µM
- TGI (SK-MEL-5 melanoma): > 100 µM
- GI50 (LOX IMVI melanoma): > 100 µM
- TGI (LOX IMVI melanoma): > 100 µM
- GI50 (SF-268 CNS): > 100 µM
- TGI (SF-268 CNS): > 100 µM
- GI50 (SW-620 colon): > 100 µM
- TGI (SW-620 colon): > 100 µM
- GI50 (SR leukemia): 19.6 µM
- TGI (SR leukemia): > 100 µM
- GI50 (KM12 colon): 12.7 µM
- TGI (KM12 colon): > 100 µM
- GI50 (HCC-2998 colon): > 100 µM
- TGI (HCC-2998 colon): > 100 µM
- GI50 (MDA-MB-435): > 100 µM
- TGI (MDA-MB-435): > 100 µM
- GI50 (K-562 leukemia): 7.23 µM
- TGI (K-562 leukemia): > 100 µM
- GI50 (CAKI-1 renal): 5.96 µM
- TGI (CAKI-1 renal): > 100 µM
- GI50 (NCI-H522 lung): 6.27 µM
- TGI (NCI-H522 lung): > 100 µM
- GI50 (HOP-92 NSCLC): 16.1 µM
- TGI (HOP-92 NSCLC): > 100 µM
- GI50 (HOP-62 NSCLC): > 100 µM
- TGI (HOP-62 NSCLC): > 100 µM
- GI50 (COLO 205 colon): 6.44 µM
- TGI (COLO 205 colon): > 100 µM
- GI50 (UACC-257 melanoma): > 100 µM
- TGI (UACC-257 melanoma): > 100 µM
- GI50 (UACC-62 melanoma): > 100 µM
- TGI (UACC-62 melanoma): > 100 µM

From PubChem BioAssay (NCI)
